# In patent publication US20230330180A1 (priority 2022, published 2023):
# System: SARS-CoV-2 KOR-KCDC03-2020 strain
# Assay: Prophylactic immunofluorescent infection assay in Vero E6 cells
# Assay type: cell-based
# Conditions: Severe acute respiratory syndrome coronavirus 2, compound added one hour prior to virus, MOI 0.0125, 24 hours
smiles,measurement,value
"CCC(CC)COC(=O)[C@H](C)N[P@](=O)(OC[C@H]1O[C@@](C#N)(c2ccc3c(N)ncnn23)[C@H](O)[C@@H]1O)Oc1ccccc1 [Remdesivir, remdesivir]",EC50,12.9 µM
